According to the NIST ThermoML archive (doi:10.1016/j.tca.2007.08.008):
Numbers after ± are expanded uncertainties.

Experiments:
[1] = Liquid; for mass density: 303.15 K, 101.33 kPa, Pycnometric method; for Normal boiling temperature: Ebulliometric method (Recirculating still)
[2] = excess molar enthalpy (molar enthalpy of mixing); xn = mol fraction of the nth substance listed; conditions: 298.15 K, 101.3 kPa, Liquid, Calvet calorimetry

CC(Cl)(Cl)Cl [1,1,1-trichloroethane]
mass density [1]: 1320.97 ± 1.3 kg/m3
Normal boiling temperature [1]: 74.20 ± 0.2 °C

CC(Cl)(Cl)Cl [1,1,1-trichloroethane] + C[S+](C)[O-]
excess molar enthalpy ([2]; x1 = 0.0243): -0.0102 ± 0.000311 kcal/mol
excess molar enthalpy ([2]; x1 = 0.0579): -0.023 ± 0.000574 kcal/mol
excess molar enthalpy ([2]; x1 = 0.109): -0.0422 ± 0.000956 kcal/mol
excess molar enthalpy ([2]; x1 = 0.1532): -0.0563 ± 0.00127 kcal/mol
excess molar enthalpy ([2]; x1 = 0.1973): -0.0679 ± 0.00151 kcal/mol
excess molar enthalpy ([2]; x1 = 0.244): -0.0796 ± 0.00174 kcal/mol
excess molar enthalpy ([2]; x1 = 0.2857): -0.087 ± 0.00191 kcal/mol
excess molar enthalpy ([2]; x1 = 0.3462): -0.0932 ± 0.00203 kcal/mol
excess molar enthalpy ([2]; x1 = 0.4106): -0.0986 ± 0.00215 kcal/mol
excess molar enthalpy ([2]; x1 = 0.4797): -0.0987 ± 0.00215 kcal/mol
excess molar enthalpy ([2]; x1 = 0.5571): -0.0945 ± 0.00208 kcal/mol
excess molar enthalpy ([2]; x1 = 0.6064): -0.0869 ± 0.00191 kcal/mol
excess molar enthalpy ([2]; x1 = 0.6632): -0.0775 ± 0.0017 kcal/mol
excess molar enthalpy ([2]; x1 = 0.7189): -0.0666 ± 0.00148 kcal/mol
excess molar enthalpy ([2]; x1 = 0.7771): -0.0526 ± 0.0012 kcal/mol
excess molar enthalpy ([2]; x1 = 0.8537): -0.0323 ± 0.000765 kcal/mol
excess molar enthalpy ([2]; x1 = 0.9297): -0.0102 ± 0.000311 kcal/mol

ClC(Cl)C(Cl)Cl [1,1,2,2-tetrachloroethane]
mass density [1]: 1578.59 ± 1.5 kg/m3
Normal boiling temperature [1]: 145.20 ± 0.2 °C

ClC(Cl)C(Cl)Cl [1,1,2,2-tetrachloroethane] + C[S+](C)[O-]
excess molar enthalpy ([2]; x1 = 0.0378): -0.0704 ± 0.00155 kcal/mol
excess molar enthalpy ([2]; x1 = 0.0688): -0.149 ± 0.00311 kcal/mol
excess molar enthalpy ([2]; x1 = 0.1005): -0.229 ± 0.00502 kcal/mol
excess molar enthalpy ([2]; x1 = 0.1295): -0.307 ± 0.00669 kcal/mol
excess molar enthalpy ([2]; x1 = 0.1325): -0.309 ± 0.00669 kcal/mol
excess molar enthalpy ([2]; x1 = 0.1565): -0.372 ± 0.00789 kcal/mol
excess molar enthalpy ([2]; x1 = 0.1793): -0.423 ± 0.00908 kcal/mol
excess molar enthalpy ([2]; x1 = 0.2167): -0.494 ± 0.0105 kcal/mol
excess molar enthalpy ([2]; x1 = 0.2914): -0.652 ± 0.0139 kcal/mol
excess molar enthalpy ([2]; x1 = 0.3555): -0.774 ± 0.0165 kcal/mol
excess molar enthalpy ([2]; x1 = 0.4111): -0.839 ± 0.0179 kcal/mol
excess molar enthalpy ([2]; x1 = 0.4577): -0.843 ± 0.0179 kcal/mol
excess molar enthalpy ([2]; x1 = 0.4979): -0.84 ± 0.0179 kcal/mol
excess molar enthalpy ([2]; x1 = 0.5577): -0.816 ± 0.0174 kcal/mol
excess molar enthalpy ([2]; x1 = 0.6277): -0.755 ± 0.016 kcal/mol
excess molar enthalpy ([2]; x1 = 0.6654): -0.712 ± 0.0151 kcal/mol
excess molar enthalpy ([2]; x1 = 0.7123): -0.664 ± 0.0141 kcal/mol
excess molar enthalpy ([2]; x1 = 0.7577): -0.609 ± 0.0129 kcal/mol
excess molar enthalpy ([2]; x1 = 0.8121): -0.514 ± 0.011 kcal/mol
excess molar enthalpy ([2]; x1 = 0.8537): -0.435 ± 0.00932 kcal/mol
excess molar enthalpy ([2]; x1 = 0.9099): -0.252 ± 0.0055 kcal/mol

ClCCCl [1,2-dichloroethane]
mass density [1]: 1238.41 ± 1.2 kg/m3
Normal boiling temperature [1]: 83.80 ± 0.2 °C

ClCCCl [1,2-dichloroethane] + C[S+](C)[O-]
excess molar enthalpy ([2]; x1 = 0.0732): -0.0141 ± 0.000382 kcal/mol
excess molar enthalpy ([2]; x1 = 0.1296): -0.0219 ± 0.00055 kcal/mol
excess molar enthalpy ([2]; x1 = 0.1713): -0.0257 ± 0.000621 kcal/mol
excess molar enthalpy ([2]; x1 = 0.2259): -0.0301 ± 0.000717 kcal/mol
excess molar enthalpy ([2]; x1 = 0.2783): -0.0361 ± 0.000837 kcal/mol
excess molar enthalpy ([2]; x1 = 0.3275): -0.0458 ± 0.00105 kcal/mol
excess molar enthalpy ([2]; x1 = 0.3609): -0.0548 ± 0.00122 kcal/mol
excess molar enthalpy ([2]; x1 = 0.4054): -0.0712 ± 0.00158 kcal/mol
excess molar enthalpy ([2]; x1 = 0.4636): -0.0899 ± 0.00196 kcal/mol
excess molar enthalpy ([2]; x1 = 0.5266): -0.11 ± 0.00239 kcal/mol
excess molar enthalpy ([2]; x1 = 0.6133): -0.138 ± 0.00311 kcal/mol
excess molar enthalpy ([2]; x1 = 0.6613): -0.143 ± 0.00311 kcal/mol
excess molar enthalpy ([2]; x1 = 0.7158): -0.131 ± 0.00287 kcal/mol
excess molar enthalpy ([2]; x1 = 0.7593): -0.127 ± 0.00263 kcal/mol
excess molar enthalpy ([2]; x1 = 0.8032): -0.106 ± 0.00232 kcal/mol
excess molar enthalpy ([2]; x1 = 0.861): -0.0677 ± 0.00151 kcal/mol
excess molar enthalpy ([2]; x1 = 0.9269): -0.0285 ± 0.000669 kcal/mol

C[S+](C)[O-] [dimethyl sulfoxide]
mass density [1]: 1092.4 ± 1 kg/m3
Normal boiling temperature [1]: 189.04 ± 0.2 °C

ClC(Cl)=C(Cl)Cl [tetrachloroethene]
mass density [1]: 1606.39 ± 1.6 kg/m3
Normal boiling temperature [1]: 121.00 ± 0.2 °C

ClC(Cl)=C(Cl)Cl [tetrachloroethene] + C[S+](C)[O-]
excess molar enthalpy ([2]; x1 = 0.0544): 0.0285 ± 0.000669 kcal/mol
excess molar enthalpy ([2]; x1 = 0.1116): 0.0584 ± 0.00131 kcal/mol
excess molar enthalpy ([2]; x1 = 0.171): 0.0912 ± 0.00201 kcal/mol
excess molar enthalpy ([2]; x1 = 0.2237): 0.117 ± 0.00263 kcal/mol
excess molar enthalpy ([2]; x1 = 0.2735): 0.141 ± 0.00311 kcal/mol
excess molar enthalpy ([2]; x1 = 0.3306): 0.155 ± 0.00335 kcal/mol
excess molar enthalpy ([2]; x1 = 0.385): 0.157 ± 0.00335 kcal/mol
excess molar enthalpy ([2]; x1 = 0.477): 0.139 ± 0.00311 kcal/mol
excess molar enthalpy ([2]; x1 = 0.5162): 0.123 ± 0.00263 kcal/mol
excess molar enthalpy ([2]; x1 = 0.5695): 0.105 ± 0.00227 kcal/mol
excess molar enthalpy ([2]; x1 = 0.6333): 0.0866 ± 0.00189 kcal/mol
excess molar enthalpy ([2]; x1 = 0.701): 0.0645 ± 0.00143 kcal/mol
excess molar enthalpy ([2]; x1 = 0.7632): 0.0522 ± 0.00117 kcal/mol
excess molar enthalpy ([2]; x1 = 0.8252): 0.0488 ± 0.0011 kcal/mol
excess molar enthalpy ([2]; x1 = 0.8872): 0.0456 ± 0.00103 kcal/mol
excess molar enthalpy ([2]; x1 = 0.9519): 0.0314 ± 0.000741 kcal/mol

ClC=C(Cl)Cl [trichloroethene]
mass density [1]: 1451.42 ± 1.4 kg/m3
Normal boiling temperature [1]: 87.10 ± 0.2 °C

ClC=C(Cl)Cl [trichloroethene] + C[S+](C)[O-]
excess molar enthalpy ([2]; x1 = 0.0673): -0.0229 ± 0.000574 kcal/mol
excess molar enthalpy ([2]; x1 = 0.1345): -0.0579 ± 0.00129 kcal/mol
excess molar enthalpy ([2]; x1 = 0.2079): -0.106 ± 0.00232 kcal/mol
excess molar enthalpy ([2]; x1 = 0.3016): -0.152 ± 0.00335 kcal/mol
excess molar enthalpy ([2]; x1 = 0.3784): -0.153 ± 0.00335 kcal/mol
excess molar enthalpy ([2]; x1 = 0.4461): -0.147 ± 0.00311 kcal/mol
excess molar enthalpy ([2]; x1 = 0.4987): -0.14 ± 0.00311 kcal/mol
excess molar enthalpy ([2]; x1 = 0.6022): -0.11 ± 0.00239 kcal/mol
excess molar enthalpy ([2]; x1 = 0.6641): -0.102 ± 0.00222 kcal/mol
excess molar enthalpy ([2]; x1 = 0.7014): -0.098 ± 0.00215 kcal/mol
excess molar enthalpy ([2]; x1 = 0.737): -0.0976 ± 0.00213 kcal/mol
excess molar enthalpy ([2]; x1 = 0.8114): -0.0854 ± 0.00186 kcal/mol
excess molar enthalpy ([2]; x1 = 0.8611): -0.0706 ± 0.00155 kcal/mol
excess molar enthalpy ([2]; x1 = 0.9151): -0.0481 ± 0.0011 kcal/mol
